In US5100910A, “Aryl substituted tetrazole derivatives, and application thereof in therapeutics” (Delalande S.A., priority 1988, dated 1992):

Columns and labels:
[1] = target: T1, MAO-B (Rattus norvegicus, UniProt P19643); experiment: In vitro inhibition of monoamine oxidase B (substrate phenylethylamine, PEA; mitochondrial suspension of rat brain); assay type: biochemical; settings: for IC50: PEA substrate, 20 min preincubation, reaction 10 min
T1 construct: using, as enzyme source, a mitochrondrial suspension of the brain of a rat; from tissue; host or cells: rat brain, mitochondrial suspension
T1 sequence (P19643 1-520): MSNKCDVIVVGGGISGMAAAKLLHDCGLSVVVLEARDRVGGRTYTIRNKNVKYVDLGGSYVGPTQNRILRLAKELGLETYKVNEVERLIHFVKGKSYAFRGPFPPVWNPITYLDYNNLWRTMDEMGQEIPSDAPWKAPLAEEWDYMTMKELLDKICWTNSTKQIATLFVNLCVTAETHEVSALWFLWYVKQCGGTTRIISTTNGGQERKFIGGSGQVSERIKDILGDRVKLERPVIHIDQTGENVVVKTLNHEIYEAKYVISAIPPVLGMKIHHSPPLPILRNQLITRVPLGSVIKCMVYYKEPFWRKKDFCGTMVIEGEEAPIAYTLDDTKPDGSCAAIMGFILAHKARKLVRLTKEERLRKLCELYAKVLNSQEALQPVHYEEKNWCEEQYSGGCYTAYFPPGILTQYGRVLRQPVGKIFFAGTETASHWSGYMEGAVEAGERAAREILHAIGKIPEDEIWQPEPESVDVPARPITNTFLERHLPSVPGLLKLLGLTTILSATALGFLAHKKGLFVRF
Method: The quantitative determination of the MAO, activity was made up by using, as enzyme source, a mitochrondrial suspension of the brain of a rat. The standard determination consists in preincubating the enzyme for 20 minutes in the absence then in the presence of the inhibitors. […] The operating method used is that of the protocol of P. C. Baker, Dev. Biol. 14, 267 (1966). The results expressed in terms of CI50 (50% inhibiting concentration) obtained with a certain number of derivatives (I) are shown in tables VII and VIII hereafter.

[2] = test system: mice; settings: mouse, in vivo, 1500 mg/kg
[3] = target: T2, MAO-A (Rattus norvegicus, UniProt P21396); experiment: In vitro inhibition of monoamine oxidase A (substrate serotonine, 5-HT; mitochondrial suspension of rat brain); assay type: biochemical; settings: 5-HT substrate; for IC50: Table VII, 20 min preincubation, reaction 40 min; for inhibition at 1 µM: read-out: % of inhibition of MAO-A at a concentration of 10^-6 M, Table VIII, at a concentration of 10^-6 M
T2 construct: using, as enzyme source, a mitochrondrial suspension of the brain of a rat; from tissue; host or cells: rat brain, mitochondrial suspension
T2 sequence (P21396 1-526): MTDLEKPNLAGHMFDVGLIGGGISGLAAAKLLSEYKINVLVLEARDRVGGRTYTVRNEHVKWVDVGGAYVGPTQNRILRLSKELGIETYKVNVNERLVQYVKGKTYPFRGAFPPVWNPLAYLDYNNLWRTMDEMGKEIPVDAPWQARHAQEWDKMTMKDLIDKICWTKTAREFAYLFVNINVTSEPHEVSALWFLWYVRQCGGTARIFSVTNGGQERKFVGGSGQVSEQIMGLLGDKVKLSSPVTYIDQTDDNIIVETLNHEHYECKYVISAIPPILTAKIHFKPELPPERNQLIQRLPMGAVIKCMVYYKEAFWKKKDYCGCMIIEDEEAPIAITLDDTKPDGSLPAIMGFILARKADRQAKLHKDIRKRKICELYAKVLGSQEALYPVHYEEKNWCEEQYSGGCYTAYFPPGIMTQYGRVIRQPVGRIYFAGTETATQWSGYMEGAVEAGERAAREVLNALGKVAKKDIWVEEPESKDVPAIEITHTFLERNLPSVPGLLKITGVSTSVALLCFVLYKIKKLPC
Method: The quantitative determination of the MAO, activity was made up by using, as enzyme source, a mitochrondrial suspension of the brain of a rat. The standard determination consists in preincubating the enzyme for 20 minutes in the absence then in the presence of the inhibitors. The activities are determined by using respectively serotonine (5-HT) and phenylethylamine (PEA) as substrates of the MAO-A and of MAO-B, the reaction times being 40 minutes with 5-HT and 10 minutes with PEA. The operating method used is that of the protocol of P. C. Baker, Dev. Biol. 14, 267 (1966).
The results expressed in terms of CI50 (50% inhibiting concentration) obtained with a certain number of derivatives (I) are shown in tables VII and VIII hereafter.

Row | Structure (SMILES) | IC50 ([1]; Table VII) [nM] | inhibition at 1 µM [3] [%] | IC50 ([1]; Table VIII) [nM] | other results
1 | N#CCCCn1nnc(-c2ccccc2)n1 [5-phenyl 2-tetrazole butyronitrile, reference compound] |  |  |  | pharmacological activity: selective inhibition of MAO-B [1]: selective inhibitiopn of the monoamine oxidase of type B (MAO-B)
2 | N#CCCCCn1nnc(-c2ccccc2)n1 [5-phenyl 2-tetrazole valeronitrile, reference compound] |  |  |  | pharmacological activity: selective inhibition of MAO-B [1]: selective inhibitiopn of the monoamine oxidase of type B (MAO-B)
3 | N#CCCn1nnc(-c2ccc(OCc3cccc(Cl)c3)cc2)n1 [Code No. 1, 5-[4-(3-chlorobenzyloxy)phenyl] 2-tetrazole propanenitrile] | 2.2 |  |  | toxicity after oral administration [2]: no toxicity was observed; IC50 [3]: 150000 nM
4 | N#CCCn1nnc(-c2ccc(OCc3ccccc3)cc2)n1 [Code No. 7] | 2.3 |  |  | toxicity after oral administration [2]: no toxicity was observed; IC50 [3]: 86000 nM
5 | N#CCCn1nnc(-c2ccc(-c3ccccc3)cc2)n1 [compound 13] |  |  |  | IC50 [3]: 7800 nM
6 | N#CCCCn1nnc(-c2ccc(-c3ccccc3)cc2)n1 [compound 14] | 1200 |  |  | IC50 [3]: 9600 nM
7 | N#CCCCCCCn1nnc(-c2ccc(-c3ccccc3)cc2)n1 [compound 16] | 5400 |  |  | IC50 [3]: 46000 nM
8 | OCCn1nnc(-c2ccc(OCc3ccccc3)cc2)n1 [compound 17] |  |  |  | toxicity after oral administration [2]: no toxicity was observed
9 | OCCn1nnc(-c2ccc(OCc3ccccc3Cl)cc2)n1 [compound 18] | 5.5 |  |  | IC50 [3]: 88000 nM
10 | OCCn1nnc(-c2ccc(OCc3cccc(Cl)c3)cc2)n1 [compound 19] |  |  |  | toxicity after oral administration [2]: no toxicity was observed
11 | OCCn1nnc(-c2ccc(OCc3ccc(Cl)c(Cl)c3)cc2)n1 [compound 23] | 24 |  |  | IC50 [3]: 140000 nM
12 | OCCCCCCn1nnc(-c2ccc(-c3ccccc3)cc2)n1 [compound 27] | 16400 |  |  | IC50 [3]: 80000 nM
13 | COCn1nnc(-c2ccc(OCc3ccccc3)cc2)n1 [compound 30] | 1600 |  |  | 
14 | Cc1cccc(COc2ccc(-c3nnn(CCO)n3)cc2)c1 [compound 36] |  | 2 | 300 | 
15 | Cc1ccccc1COc1ccc(-c2nnn(CCO)n2)cc1 [compound 39] |  | 3 | 290 | 
16 | COc1cccc(COc2ccc(-c3nnn(CCO)n3)cc2)c1 [compound 45] |  | 7 | 800 | 
17 | CN(C)CCn1nnc(-c2ccc(OCc3ccccc3)cc2)n1 [compound 64] |  | 15 | 280 | 
18 | BrCCn1nnc(-c2ccc(OCc3ccccc3)cc2)n1 [compound 65] |  | 4 | 90 | 
19 | CC(=O)NCCn1nnc(-c2ccc(OCc3ccccc3)cc2)n1 [compound 66] |  | 3.7 | 1500 | 
20 | NCCn1nnc(-c2ccc(OCc3ccccc3)cc2)n1 [compound 68] |  | 6 | 70 | 

The next lines start with results.

Row | IC50 ([1]; Table VII) [nM] | inhibition at 1 µM [3] [%] | IC50 ([1]; Table VIII) [nM] | Structure (SMILES) | other results
21 | 8 |  |  | OCCn1nnc(-c2ccc(OCc3ccc(Cl)cc3)cc2)n1 [compound 20] | IC50 [3]: 60000 nM
22 |  | 3 | 100 | N#CCn1nnc(-c2ccc(OCc3ccccc3)cc2)n1 [compound 29] | 
23 |  |  | 1600 | Cc1ccc(COc2ccc(-c3nnn(CC#N)n3)cc2)cc1 [compound 31] | 
24 | 570 |  |  | Cc1ccc(COc2ccc(-c3nnn(CCC#N)n3)cc2)cc1 [compound 32] | 
25 |  | 0 | 8000 | Cc1ccc(COc2ccc(-c3nnn(CCO)n3)cc2)cc1 [compound 33] | 
26 |  | 5 | 200 | Cc1cccc(COc2ccc(-c3nnn(CCC#N)n3)cc2)c1 [compound 35] | 
27 |  | 10 | 160 | Cc1ccccc1COc1ccc(-c2nnn(CC#N)n2)cc1 [compound 37] | 
28 |  | 6 | 110 | Cc1ccccc1COc1ccc(-c2nnn(CCC#N)n2)cc1 [compound 38] | 
29 |  | 9 | 3400 | COc1ccc(COc2ccc(-c3nnn(CCC#N)n3)cc2)cc1 [compound 41] | 
30 | 4700 |  |  | COc1ccc(COc2ccc(-c3nnn(CCO)n3)cc2)cc1 [compound 42] | 
31 |  | 0 | 400 | COc1cccc(COc2ccc(-c3nnn(CCC#N)n3)cc2)c1 [compound 44] | 
32 |  | 6 | 170 | N#CCn1nnc(-c2ccc(OCc3ccc(F)cc3)cc2)n1 [compound 46] | 
33 |  | 2 | 210 | N#CCCn1nnc(-c2ccc(OCc3ccc(F)cc3)cc2)n1 [compound 47] | 
34 |  | 2 | 270 | OCCn1nnc(-c2ccc(OCc3ccc(F)cc3)cc2)n1 [compound 48] | 
35 |  | 12 | 15 | Cc1ccc(COc2ccc(-c3nnnn3CC#N)cc2)cc1 [compound 50] | 
36 | 890 |  | 900 | COc1ccc(COc2ccc(-c3nnnn3CCO)cc2)cc1 [compound 51] | 
37 |  | 15 | 24 | N#CCn1nnnc1-c1ccc(OCc2ccc(F)cc2)cc1 [compound 52] | 
38 |  | 3 | 360 | OCCn1nnnc1-c1ccc(OCc2ccc(F)cc2)cc1 [compound 53] | 
39 | 6.4 |  |  | N#CCCn1nc(-c2ccc(OCc3ccccc3)cc2)oc1=O [compound 54] | 
40 | 9.3 |  |  | N#CCCn1nc(-c2ccc(OCc3ccccc3)cc2)oc1=S [compound 55] | 
41 | 16 |  |  | N#CCCn1nc(-c2ccc(OCc3ccccc3)cc2)sc1=O [compound 56] | 
42 | 62 |  |  | N#CCCn1nc(-c2ccc(OCc3ccccc3)cc2)sc1=S [compound 57] | 
43 |  | 3 | 3600 | OCCn1nnnc1-c1ccc(OCc2ccccc2I)cc1 [compound 58] | 
44 |  | 4 | 67 | N#CCn1nnnc1-c1ccc(OCc2ccccc2)cc1 [compound 59] | 
45 |  | 17 | 480 | Cc1ccccc1COc1ccc(-c2nnnn2CCC#N)cc1 [compound 60] | 
46 |  | 1 | 270 | Cc1cccc(COc2ccc(-c3nnnn3CCC#N)cc2)c1 [compound 61] | 
